Values joined by “and” are separate entries in the source; they are usually repeats but may differ in a detail not shown here. Equal entries are not always repeated. “Also recorded” adds a separate entry of the source.
Legend:
[1] = biological target: T1, LSD1 (Macaca mulatta, UniProt I2CUD2); assay: LSD1 enzyme occupancy in brain from [18F]MNI-1054 PET blocking, self-block and repopulation studies; assay type: in vivo, rhesus monkeys (macaca mulatta); set-up: from tissue; host or cells: brain of living rhesus monkeys (M1, M2), in vivo PET; settings: for Occupancy: from Ki
Protocol: M1 and M2 each completed a scan at baseline to assess brain penetration and kinetics and to serve as reference for the blocking and displacement studies. A self-block study with cold 3 mg/kg MNI-1054, starting 5 min prior to [^18F]MNI-1054 administration, was conducted in M1 to assess regional differences in non-specific binding.
Blocking studies with the LSD1 inhibitor TAK-418 ([…]) were performed to measure the dose-occupancy relationship for this compound. For blocking studies, TAK-418 was administered intravenously 2 h prior to [^18F]MNI-1054. Prior to conducting these blocking studies, a displacement study with TAK-418 (3 mg/kg) was performed to confirm irreversible tracer binding, in which TAK-418 was administered 1.5 h post [^18F]MNI-1054 administration. For all studies involving TAK-418, the test article was administered intravenously over 5 min. Due to the irreversible binding of these compounds to LSD1, the time taken for the enzyme to re-populate was investigated by imaging one animal (M2) with [^18F]MNI-1054 at 24 and 48 h post TAK-418 treatment (0.3 mg/kg). Each animal also underwent a high-resolution T1-weighted structural brain MRI scan with a 3-D MPRAGE sequence on a separate day for anatomical reference.
Regional occupancy due to TAK-418 or unlabeled MNI-1054 as measured with [^18F]MNI-1054 was computed as the percent change relative to the baseline value of Ki, i.e. where the drug was either TAK-418 or MNI-1054. An Emax model with maximum occupancy constrained to a value less than 100% was fitted to the dose-occupancy plot to estimate Omax (maximal occupancy) and ED50 [mg/kg] representing the injected TAK-418 dose yielding 50% LSD1 occupancy.

[2] = TAK-418 plasma concentration after 5-minute intravenous bolus; assay type: in vivo, rhesus monkeys (macaca mulatta); settings: 0.3 mg/kg iv
[3] = biological target: T1, LSD1; assay: PET imaging of the testes (baseline and TAK-418 blocking); settings: TAK-418 3.0 mg/kg iv 120 min before tracer, M3
Protocol: TAK-418 (3 mg/kg) was administered as an intravenous bolus over 5-min, starting 120 min prior to [^18F]MNI-1054 administration.

[4] = cerebellum, TAK-418 iv 2 h before tracer

Occupancy based on fractional changes in k3 ([1]; cerebellum, TAK-418 0.005 mg/kg, 2 h post-dose): 2.4% | Occupancy ([1]; cerebellum, TAK-418 0.005 mg/kg, 2 h post-dose, M2): −21.3% | [18F]MNI-1054 Ki 2 h post-dose ([1]; cerebellum, TAK-418 0.005 mg/kg, M2): 0.057 mL/cm^3/min | Occupancy ([1]; cerebellum, TAK-418 0.01 mg/kg, 2 h post-dose, M1): 47.3% | [18F]MNI-1054 Ki 2 h post-dose ([1]; cerebellum, TAK-418 0.01 mg/kg, M1): 0.030 mL/cm^3/min | Occupancy ([1]; cerebellum, TAK-418 0.03 mg/kg, 2 h post-dose, M2): 62.5% | [18F]MNI-1054 Ki 2 h post-dose ([1]; cerebellum, TAK-418 0.03 mg/kg, M2): 0.017 mL/cm^3/min | Occupancy ([1]; cerebellum, TAK-418 0.3 mg/kg, 2 h post-dose, M1): 89.9% | LSD1 enzyme occupancy ([1]; cerebellum, TAK-418 0.3 mg/kg, 24 h post-dose, M2): 29.8% | [18F]MNI-1054 Ki 2 h post-dose ([1]; cerebellum, TAK-418 0.3 mg/kg, M1): 0.006 mL/cm^3/min | half-life for occupancy to decrease to zero (proxy for LSD1 enzyme repopulation) ([1]; cerebellum, TAK-418 0.3 mg/kg, exponential fit to 2, 24 and 48 h occupancy): 12.28 h | Occupancy ([1]; cerebellum, TAK-418 3 mg/kg, 2 h post-dose, M1, 3 mg/kg): 90.1% | [18F]MNI-1054 Ki 2 h post-dose ([1]; cerebellum, TAK-418 3 mg/kg, M1): 0.005 mL/cm^3/min | ED50 (Emax model fit) [1, 4]: 0.0224 mg/kg and ~ 0.0224 mg/kg | Omax (Emax model fit) [1, 4]: 95.6% | ED50 (Emax model fit) ([1]; occipital cortex): 0.0279 mg/kg and ~ 0.0279 mg/kg | Omax (Emax model fit) ([1]; occipital cortex): 77.3% | ED50 (Emax model fit) ([1]; pons): 0.046 mg/kg | Omax (Emax model fit) ([1]; pons): 73.3% | plasma concentration as percent of its peak value ([2]; after 5 h): 0.45% | occupancy in the testes ([3]; from fractional changes in a parameter other than Ki): 94.4%
SMILES: O=C(NC1CCOCC1)c1csc([C@@H]2C[C@H]2NCC2CC2)c1 [TAK-418]
TAK-418 levels in plasma ([2]; 24 and 48 hours post-dose, M2): no detectable levels; also recorded: below the level of detection | signal blockade in the testes ([3]; compared with control leg muscle, 3 mg/kg): significant signal blockade; also recorded: substantial reduction
